pIC50: −log10 of the molar value.

In this data set the test system is human RAGE. As to the kind of experiment: psiCHECK on-target activity at 9 concentration points in HEK293A cells, dual-luciferase reporter (Example 8). Type of data set: cell-based. Particulars: psiCHECK system, Table 9. An excerpt: As used herein, the term "inhibit" is used interchangeably with "decrease", "silence", "down-regulate", "repress", and other similar terms, and includes any level of inhibition. Inhibition can be assessed in terms of a decrease in the absolute or relative level of one or more of these variables relative to a control level. The control level can be any type of control level used in the art, such as a pre-dose baseline level or a level determined from an untreated or control (e.g., buffer-only control or inert agent control) treated subject, cell, or sample. […] The inhibition rate of target gene expression can be measured using a Dual-Glo® Luciferase Assay System: the Firefly chemiluminescence value (Fir) and the Renilla chemiluminescence value (Ren) are each read, and the relative value Ratio = Ren/Fir is calculated. In the present disclosure, the ratio of the remaining mRNA expression level (or residual activity%) = Ratio (RNAi agent-treated group)/Ratio (RNAi agent-free control group), and the inhibition rate (%) = 100% - remaining mRNA expression level (%).
RNAi agents were subjected to an in vitro molecular-level simulation of on-target activity screening in HEK293A cells using 9 concentration gradients.
HEK293A cells were cultured at 37 °C with 5% CO2 in a DMEM high-glucose culture medium containing 10% fetal bovine serum. 24 h prior to transfection, the HEK293A cells were seeded into a 96-well plate at a density of 1 × 10^4 cells per well, with each well containing 100 µL of the culture medium.
The cells were co-transfected with the RNAi agents and corresponding plasmids using Lipofectamine2000 (ThermoFisher, 11668019) according to the instructions, with 0.3 µL of Lipofectamine2000 used per well. The amount of plasmids for transfection was 20 ng per well. For on-target sequence plasmids, a total of 9 concentration points were set for the RNAi agents; the highest concentration point final concentration was 20 nM, and a 3-fold serial dilution was performed to obtain 20.0000 nM, 6.6667 nM, 2.2222 nM, 0.7407 nM, 0.2469 nM, 0.0823 nM, 0.0274 nM, 0.0091 nM, and 0.0030 nM. 24 h after transfection, the on-target levels were determined using a Dual-Luciferase Reporter Assay System (Promega, E2940). Table 9. The IC50 activity of RNAi agents in a psiCHECK system
Background: Reporter assays use an easily measured gene product as a stand-in for the process of interest.
One may read the pIC50 as the IC50 on a negative log10 scale, so that one unit is a factor of ten. Substance “TJR103633-TJ-16: RNAi agent containing targeting ligand I-14: SS strand SEQ ID NO: 21, AS strand SEQ ID NO: 47 (sense CUGUCAGCAUCAGCAUCAA; antisense UUGAUGCUGAUGCUGACAGCA; targeting ligand I-14 conjugated, modification pattern not given here)” gave a pIC50 of 9.46.

“TJR103634-TJ-16: RNAi agent containing targeting ligand I-14: SS strand SEQ ID NO: 22, AS strand SEQ ID NO: 48 (sense GACCAACUCUCUCCUGUAA; antisense UUACAGGAGAGAGUUGGUCUG; targeting ligand I-14 conjugated, modification pattern not given here)” showed a pIC50 of 9.42. This pIC50 and that of the substance before are within 0.2 log units of each other.

The substance “TJR103635-TJ-16: RNAi agent containing targeting ligand I-14: SS strand SEQ ID NO: 23, AS strand SEQ ID NO: 49 (sense AGAGGAGGAGCGUGCAGAA; antisense UUCUGCACGCUCCUCCUCUUC; targeting ligand I-14 conjugated, modification pattern not given here)” had a pIC50 of 9.20. This pIC50 lies 0.22 log units lower than the previous one.

As to “TJR103636-TJ-16: RNAi agent containing targeting ligand I-14: SS strand SEQ ID NO: 24, AS strand SEQ ID NO: 50 (sense CAGUCGGAGCUAAUGGUGA; antisense UCACCAUUAGCUCCGACUGCA; targeting ligand I-14 conjugated, modification pattern not given here)”, the pIC50 is 9.54.

In turn, “TJR103637-TJ-16: RNAi agent containing targeting ligand I-14: SS strand SEQ ID NO: 25, AS strand SEQ ID NO: 51 (sense CUUUUCUUUUUCCCUUGAA; antisense UUCAAGGGAAAAAGAAAAGGG; targeting ligand I-14 conjugated, modification pattern not given here)” had a pIC50 of 9.08.

“TJR103638-TJ-16: RNAi agent containing targeting ligand I-14: SS strand SEQ ID NO: 26, AS strand SEQ ID NO: 52 (sense CCUUUUCUUUUUCCCUUGA; antisense UCAAGGGAAAAAGAAAAGGGA; targeting ligand I-14 conjugated, modification pattern not given here)” gave a pIC50 of 9.01.
